Data published in patent publication US9505749B2, “Quinazolinone compounds and derivatives thereof” (AMGEN INC., priority 2012, dated 2016).
Like-named read-outs stand apart in the source and are kept apart here.

Legend:
[1] = molecular target: 6×HIS-tankyrase1 (1091-1325) (Homo sapiens (Human), UniProt O95271); experiment: Tankyrase 1 biochemical assay (AlphaLisa, PARsylation); conditions: read-out: TNKS1 IC50
[2] = molecular target: 6×HIS-tankyrase 2 (946-1162) (Homo sapiens (Human), UniProt Q9H2K2); experiment: Tankyrase 2 biochemical assay (AlphaLisa, PARsylation); conditions: 250 nM NAD; read-out: TNKS2 IC50
[3] = test system: Axin2 accumulation in SW480 cells; experiment: Axin2 384 immunofluorescence assay; assay type: cell-based; conditions: Homo sapiens, read-out: Axin2 384 IF EC50
PARP1 = PARP1 (Homo sapiens (Human), UniProt P09874); experiment: PARP1 biochemical assay (Trevigen kit)
Description: PARP1 biochemical assay was purchased as a kit from Trevigen (cat.#4676-096-K) and used per manufacturers recommendations.

PARP2 = PARP2 (Homo sapiens (Human), UniProt Q9UGN5); experiment: PARP2 biochemical assay (BPS kit)
[4] = test system: total β-catenin in SW480 colorectal cells; experiment: Total β-catenin MSD 96-well plate assay for SW480 cells; conditions: Homo sapiens, SW480, read-out: SW480-Total beta-catenin (TBC) IC50 IP

Chain of 6×HIS-tankyrase1 (1091-1325) (O95271 1091-1325): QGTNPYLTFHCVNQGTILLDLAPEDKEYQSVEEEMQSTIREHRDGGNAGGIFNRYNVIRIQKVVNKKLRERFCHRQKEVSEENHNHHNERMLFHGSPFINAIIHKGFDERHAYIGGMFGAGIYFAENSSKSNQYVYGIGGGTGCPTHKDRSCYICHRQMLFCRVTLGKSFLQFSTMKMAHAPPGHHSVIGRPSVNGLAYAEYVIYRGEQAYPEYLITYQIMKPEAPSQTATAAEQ
Chain of PARP1 (P09874 whole entry): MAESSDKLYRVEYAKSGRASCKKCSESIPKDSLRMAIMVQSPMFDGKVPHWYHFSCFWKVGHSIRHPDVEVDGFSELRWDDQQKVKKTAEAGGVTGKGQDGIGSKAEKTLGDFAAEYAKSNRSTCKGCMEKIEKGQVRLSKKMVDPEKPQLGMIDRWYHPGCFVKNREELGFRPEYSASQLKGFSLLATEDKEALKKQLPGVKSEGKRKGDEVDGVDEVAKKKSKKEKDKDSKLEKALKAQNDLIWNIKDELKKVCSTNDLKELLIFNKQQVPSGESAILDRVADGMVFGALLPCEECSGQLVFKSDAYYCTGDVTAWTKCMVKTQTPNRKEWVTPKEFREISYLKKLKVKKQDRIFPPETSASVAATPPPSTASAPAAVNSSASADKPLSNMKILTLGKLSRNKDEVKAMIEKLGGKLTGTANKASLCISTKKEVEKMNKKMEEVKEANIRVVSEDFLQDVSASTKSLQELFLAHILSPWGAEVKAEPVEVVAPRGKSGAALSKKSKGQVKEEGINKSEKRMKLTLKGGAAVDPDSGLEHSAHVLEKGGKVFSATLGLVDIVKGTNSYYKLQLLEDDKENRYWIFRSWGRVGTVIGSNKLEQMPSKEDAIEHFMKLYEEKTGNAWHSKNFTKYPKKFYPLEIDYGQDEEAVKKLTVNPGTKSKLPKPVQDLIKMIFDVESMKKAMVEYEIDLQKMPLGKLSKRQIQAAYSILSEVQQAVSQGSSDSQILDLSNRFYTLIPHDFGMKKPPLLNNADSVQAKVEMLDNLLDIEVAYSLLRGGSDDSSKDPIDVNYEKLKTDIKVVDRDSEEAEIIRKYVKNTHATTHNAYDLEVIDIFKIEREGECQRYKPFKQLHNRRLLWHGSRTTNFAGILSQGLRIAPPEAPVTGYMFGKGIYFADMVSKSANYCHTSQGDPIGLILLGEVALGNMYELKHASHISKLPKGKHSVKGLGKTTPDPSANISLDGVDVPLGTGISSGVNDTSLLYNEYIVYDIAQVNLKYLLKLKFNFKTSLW
Chain of PARP2 (Q9UGN5 whole entry): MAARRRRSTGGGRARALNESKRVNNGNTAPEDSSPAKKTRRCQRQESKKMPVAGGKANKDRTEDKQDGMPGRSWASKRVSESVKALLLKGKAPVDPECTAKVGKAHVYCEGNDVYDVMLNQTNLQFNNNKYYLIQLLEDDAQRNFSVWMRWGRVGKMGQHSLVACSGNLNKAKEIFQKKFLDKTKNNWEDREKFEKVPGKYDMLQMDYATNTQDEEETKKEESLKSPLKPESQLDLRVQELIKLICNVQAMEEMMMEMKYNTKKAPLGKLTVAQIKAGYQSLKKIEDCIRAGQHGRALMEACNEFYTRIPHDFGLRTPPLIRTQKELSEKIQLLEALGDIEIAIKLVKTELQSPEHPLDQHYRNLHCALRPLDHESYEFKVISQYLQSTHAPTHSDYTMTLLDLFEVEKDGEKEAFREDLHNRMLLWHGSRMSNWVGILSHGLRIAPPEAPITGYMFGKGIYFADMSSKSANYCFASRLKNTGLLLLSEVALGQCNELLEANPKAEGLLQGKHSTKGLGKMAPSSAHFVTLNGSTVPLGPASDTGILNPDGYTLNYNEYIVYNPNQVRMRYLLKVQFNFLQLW
Chain of 6×HIS-tankyrase 2 (946-1162) (Q9H2K2 946-1162): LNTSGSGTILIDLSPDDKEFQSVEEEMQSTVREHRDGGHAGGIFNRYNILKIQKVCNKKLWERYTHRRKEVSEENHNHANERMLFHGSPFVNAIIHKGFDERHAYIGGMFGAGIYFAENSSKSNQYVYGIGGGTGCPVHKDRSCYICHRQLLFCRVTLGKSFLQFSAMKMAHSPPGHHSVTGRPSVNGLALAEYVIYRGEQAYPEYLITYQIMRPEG

| Compound | IC50 ([1]; 400 nM NAD, 60 minutes at RT) [nM] | IC50 [2] [nM] | EC50 ([3]; SW480 cells, 24 hours) [nM] | IC50 (PARP1) [nM] | IC50 (PARP2) [nM] | IC50 [4] [nM] | IC50 [1] [nM] | EC50 ([3]; SW480, 24 h) [nM] |
| --- | --- | --- | --- | --- | --- | --- | --- | --- |
| O=C(CCCc1nc2ccccc2c(=O)[nH]1)N1CCC(c2nnc(-c3ccc(Cl)cc3)o2)CC1 [Example 4, 2-(4-(4-(5-(4-chlorophenyl)-1,3,4-oxadiazol-2-yl)piperidin-1-yl)-4-oxobutyl)quinazolin-4(3H)-one] | 11 | 2.06 | 210 | 2410 | 961 | 36.4 |  |  |
| O=C(CCCc1nc2ccccc2c(=O)[nH]1)N1CCC(N2C(=O)Cc3ccccc32)CC1 [Example 43, 2-(4-oxo-4-(4-(2-oxo-2,3-dihydro-1H-indol-1-yl)-1-piperidinyl)butyl)-4(3H)-quinazolinone] |  | 16.6 |  | 6420 | 1060 | 1910 | 33.5 | 3880 |
| O=C(CCCc1nc2ccccc2c(=O)[nH]1)N1CCC(c2nnc(-c3ccncc3)o2)CC1 [Example 19, 2-(4-oxo-4-(4-(5-(4-pyridinyl)-1,3,4-oxadiazol-2-yl)-1-piperidinyl)butyl)-4(3H)-quinazolinone] | 15 | 4.86 | 291 | 4920 | 1120 | 248 |  |  |
| O=C(CSc1nc2ccccc2c(=O)[nH]1)N1CCC(c2nnc(-c3ccccc3)o2)CC1 [Example 89, 2-((2-oxo-2-(4-(5-phenyl-1,3,4-oxadiazol-2-yl)piperidin-1-yl)ethyl)thio)quinazolin-4(3H)-one] | 16.6 | 6.33 | 2330 | 1390 | 350 | 1710 |  |  |
| O=C(CCCc1nc2ccccc2c(=O)[nH]1)N1CCC(c2nnc(-c3ccccn3)o2)CC1 [Example 12, 2-(4-oxo-4-(4-(5-(2-pyridinyl)-1,3,4-oxadiazol-2-yl)-1-piperidinyl)butyl)-4(3H)-quinazolinone] | 89.7 | 15.9 | 1220 | 6290 | 1920 | 1840 |  |  |
| O=C(CCCc1nc2ccccc2c(=O)[nH]1)N[C@H]1CC[C@H](Oc2cccnc2)CC1 [Example 59, 4-(4-oxo-3,4-dihydro-2-quinazolinyl)-N-(trans-4-(3-pyridinyloxyl)cyclohexyl)butanamide] | 11.8 | 2.39 | 951 | 1900 | 371 | 208 |  |  |
| O=C(CCc1nc2ccccc2c(=O)[nH]1)N1CCC(c2nnc(-c3ccccc3)o2)CC1 [Example 98, 2-(3-oxo-3-(4-(5-phenyl-1,3,4-oxadiazol-2-yl)piperidin-1-yl)propyl)quinazolin-4(3H)-one] | 161 | 199 | 3990 | 3460 | 806 | 2730 |  |  |
| COc1cccc(-c2nnc(C3CCN(C(=O)CCCc4nc5ccccc5c(=O)[nH]4)CC3)o2)c1 [Example 24, 2-(4-(4-(5-(3-methoxyphenyl)-1,3,4-oxadiazol-2-yl)piperidin-1-yl)-4-oxobutyl)quinazolin-4(3H)-one] | 18.8 | 4.95 | 257 | 1690 | 1110 | 226 |  |  |
| O=C(CCSc1nc2ccccc2c(=O)[nH]1)N1CCN(c2n[nH]c3ccccc23)CC1 [Example 94, 2-((3-(4-(1H-indazol-3-yl)-1-piperazinyl)-3-oxopropyl)sulfanyl)-4(3H)-quinazolinone] | 12.1 | 6.3 |  | 1230 | 89.5 | 2220 |  |  |
| O=C(CCCc1nc2ccccc2c(=O)[nH]1)N1CCC(N2C(=O)C(F)(F)c3ccccc32)CC1 [Example 60, 2-(4-(4-(3,3-difluoro-2-oxo-2,3-dihydro-1H-indol-1-yl)-1-piperidinyl)-4-oxobutyl)-4(3H)-quinazolinone] |  | 28.9 |  | 4530 |  |  | 46 | 2410 |
| O=C(CCCc1nc2ccccc2c(=O)[nH]1)N1CC=C(n2c(=O)[nH]c3ccccc32)CC1 [Example 46, 2-(4-oxo-4-(4-(2-oxo-2,3-dihydro-1H-benzimidazol-1-yl)-3,6-dihydro-1(2H)-pyridinyl)butyl)-4(3H)-quinazolinone trifluoroacetic acid] | 17.7 | 4.01 | 4780 | 2050 |  | 1360 |  |  |
| O=C(CCSc1nc2ccccc2c(=O)[nH]1)N1CCC(n2c(=O)[nH]c3cc(Cl)ccc32)CC1 [Example 82, 2-((3-(4-(5-chloro-2-oxo-2,3-dihydro-1H-benzo[d]imidazol-1-yl)piperidin-1-yl)-3-oxopropyl)thio)quinazolin-4(3H)-one] | 128 | 73.7 |  | 1470 | 99.4 | 3310 |  |  |
| O=C(CCCc1nc2ccccc2c(=O)[nH]1)N[C@H]1CC[C@H](OCc2ccccc2)C1 (stereo in doubt) [Example 62, N-((1R,3R)-3-(benzyloxy)cyclopentyl)-4-(4-oxo-3,4-dihydroquinazolin-2-yl)butanamide+N-((1S,3S)-3-(benzyloxy)cyclopentyl)-4-(4-oxo-3,4-dihydroquinazolin-2-yl)butanamide] | 587 | 138 |  | 7680 | 2840 | > 10000 |  |  |

Further lines, with some results ahead:

| IC50 ([1]; 400 nM NAD, 60 minutes at RT) [nM] | IC50 [2] [nM] | EC50 ([3]; SW480 cells, 24 hours) [nM] | IC50 (PARP1) [nM] | IC50 (PARP2) [nM] | IC50 [4] [nM] | Compound | IC50 [1] [nM] | EC50 ([3]; SW480, 24 h) [nM] |
| --- | --- | --- | --- | --- | --- | --- | --- | --- |
| 3.97 | 1.18 | 1270 | 2440 | 1590 | 233 | O=C(CCCc1nc2ccccc2c(=O)[nH]1)N1CCC(n2c(=O)[nH]c3ncccc32)CC1 [Example 47, 2-(4-oxo-4-(4-(2-oxo-2,3-dihydro-1H-imidazo[4,5-b]pyridin-1-yl)-1-piperidinyl)butyl)-4(3H)-quinazolinone trifluoroacetic acid] |  |  |
| 0.0979 | 0.16 |  | 1930 | 1070 | 4.83 | O=C(CCCc1nc2ccccc2c(=O)[nH]1)N[C@H]1CC[C@H](c2ncc(-c3ccccc3)o2)CC1 [Example 95, 4-(4-oxo-3,4-dihydro-2-quinazolinyl)-N-(trans-4-(5-phenyl-1,3-oxazol-2-yl)cyclohexyl)butanamide] |  |  |
| 1.97 | 0.981 | 96.9 | 629 | 431 | 101 | COc1ccc2[nH]c(=O)n(C3CCN(C(=O)CCCc4nc5ccccc5c(=O)[nH]4)CC3)c2c1 [Example 34, 2-(4-(4-(6-methoxy-2-oxo-2,3-dihydro-1H-benzimidazol-1-yl)-1-piperidinyl)-4-oxobutyl)-4(3H)-quinazolinone] |  |  |
| 0.549 | 0.43 | 30.2 | 1670 | 889 | 14.9 | O=C(CCCc1nc2ccccc2c(=O)[nH]1)N[C@H]1CC[C@H](c2nnc(-c3ccc(Cl)cc3)o2)CC1 [Example 29, N-(trans-4-(5-(4-chlorophenyl)-1,3,4-oxadiazol-2-yl)cyclohexyl)-4-(4-oxo-3,4-dihydro-2-quinazolinyl)butanamide] |  |  |
| 9.61 | 3.91 | 240 | 2300 | 1360 | 224 | O=C(CCCc1nc2ccccc2c(=O)[nH]1)N1CCC(c2nnc(-c3ccc(F)c(Cl)c3)o2)CC1 [Example 25, 2-(4-(4-(5-(3-chloro-4-fluorophenyl)-1,3,4-oxadiazol-2-yl)piperidin-1-yl)-4-oxobutyl)quinazolin-4(3H)-one] |  |  |
| 3.7 | 3.48 |  | > 85000 | > 170000 | 738 | Cc1cc(=O)[nH]c(SCCC(=O)N[C@H]2CC[C@H](c3nnc(-c4ccccc4)o3)CC2)n1 [Example 37, 3-((4-methyl-6-oxo-1,6-dihydropyrimidin-2-yl)thio)-N-((1r,4r)-4-(5-phenyl-1,3,4-oxadiazol-2-yl)cyclohexyl)propanamide] |  |  |
| 0.148 | 5.02 |  | 3540 | 1120 | 7.66 | O=C(CCSc1nc2ccc(F)cc2c(=O)[nH]1)N[C@H]1CC[C@H](c2nnc(-c3ccccc3)o2)CC1 [Example 145, 3-((6-fluoro-4-oxo-3,4-dihydro-2-quinazolinyl)sulfanyl)-N-(trans-4-(5-phenyl-1,3,4-oxadiazol-2-yl)cyclohexyl)propanamide] |  |  |
| 4.78 | 5.46 |  | > 85000 | > 170000 | 349 | O=C(CCSc1cc(=O)n2ccccc2n1)N[C@H]1CC[C@H](c2nnc(-c3ccccc3)o2)CC1 [Example 144, 3-((4-oxo-4H-pyrido[1,2-a]pyrimidin-2-yl)sulfanyl)-N-(trans-4-(5-phenyl-1,3,4-oxadiazol-2-yl)cyclohexyl)propanamide] |  |  |
| 0.0597 | 2.52 | 25.8 | > 85000 |  | 7.27 | O=C(CSc1nc2ccccc2c(=O)[nH]1)N[C@H]1CC[C@H](n2c(=O)[nH]c3cc(Cl)ccc32)CC1 [Example 87, N-((1r,4r)-4-(5-chloro-2-oxo-2,3-dihydro-1H-benzo[d]imidazol-1-yl)cyclohexyl)-2-((4-oxo-3,4-dihydroquinazolin-2-yl)thio)acetamide] |  |  |
